Laboratory results taken from paper PMC12108424, “Genetically Modified Mesenchymal Stromal/Stem Cells as a Delivery Platform for SE-33, a Cathelicidin LL-37 Analogue: Preclinical Pharmacokinetics and Tissue Distribution in C57BL/6 Mice” (Antibiotics, 2025).
Where no end group is shown, it is not given here.

Legend:
S. aureus = tested on: S. aureus; parameters: method as in PMID 38391576, doi:10.1134/S1068162019020158, PMID 40072070; conditions: in vitro; cited from earlier work
[1] = parameters: species or system C57BL/6 mice; conditions: mouse, in vivo
Protocol: The tissue availability and distribution of SE-33 peptide were further assessed using the following parameters: fT: tissue penetration factor. This parameter reflects the ratio of drug exposure in tissues relative to plasma or serum and is used to assess antimicrobial drug distribution at the target site and to guide therapy selection. In this study, fT was calculated using the following equation:(4) fT=AUC0–t(tissue)/AUC0–t(serum) This approach, commonly applied in evaluating drug distribution within extravascular compartments, particularly for antimicrobial agents, is consistent with its established definition in pharmacokinetics as the tissue-to-plasma AUC ratio [99, 100].

E. coli = tested on: E. coli; parameters: method as in PMID 38391576, doi:10.1134/S1068162019020158, PMID 40072070; conditions: in vitro; cited from earlier work
fungi and yeast = tested on: fungi and yeast; parameters: method as in PMID 38391576, doi:10.1134/S1068162019020158, PMID 40072070; conditions: in vitro; cited from earlier work
in vivo [2] = experiment: in vivo; parameters: species or system C57BL/6 mice
Protocol: (§1) The studies were conducted on sexually mature male C57BL/6 mice with an average body weight of 20 g and an age of 8 weeks. The animals were sourced from the “Andreevka”, branch of the Scientific Center of Biomedical Technologies of the Russian Federal Medical and Biological Agency (Russia). The mice underwent a 14-day acclimatization period. The animals were housed in individually ventilated polysulfone cages ISO RAIR 4 × 8 (LabProducts, Aberdeen, WA, USA) with Rehofix MK2000 corn cob bedding (J. Rettenmaier and Söhne GmbH, Rosenberg, Germany). The animal housing environment followed a 12-h light/dark cycle with an ad libitum access to water and standard laboratory feed. The group assignment was based on body weight, ensuring a no more than 10% deviation from the average group weight. All experimental procedures were approved by the Local Ethics Committee (LEC) of the Federal State Budgetary Educational Institution of Higher Education “Privolzhsky Research Medical University” Ministry of Health of the Russian Federation (Protocol No. 06, dated 29 April 2022) and adhered to the guidelines for the care and use of laboratory animals.
(§2) Immediately prior to administration, WJ-MSC-SE33 cells were resuspended in a saline solution (0.9% NaCl). The mice were divided into groups (n = 48) and fasted for 8 h before intravenous injection. The injection volume was calculated based on body weight. Single-dose administrations were 1 × 10^5 cells/mouse (0.5 × 10^7 cells/kg), 2.5 × 10^5 cells/mouse (1.25 × 10^7 cells/kg), and 5 × 10^5 cells/mouse (2.5 × 10^7 cells/kg) (Figure 4B). Repeated administrations were conducted on days 1, 3, and 5 at a dose of 1 × 10^5 cells/mouse (Figure 4B).
(§3) The 0 h time point represents samples obtained from animals prior to WJ-MSC-SE33 injection (pre-dose baseline). SE-33 concentrations at baseline were established as 0 μg/mL since the peptide was undetectable (<LLOQ) in all pre-dose samples, confirming the absence of endogenous expression. Blood samples were collected into tubes without an anticoagulant and centrifuged at 3000 rpm for 15 min at room temperature. Then, serum samples were isolated and placed in cryovials. Samples of peripheral tissues (lungs, liver, and spleen) were collected at similar time points. Blood and tissue samples were stored at −79 °C.
(§4) Thawed mouse serum was centrifuged at 12,000 rpm for 30 min using a MiniSpin centrifuge (Eppendorf, Hamburg, Germany). The supernatant was collected and diluted 20-fold with 20 mM TrisHCl (pH 7.8). For peripheral tissue samples, 100 mg of thawed tissue was weighed using Sartorius CPA225D scales (Sartorius, Göttingen, Germany) and homogenized in 1.6 mL of acidified ethanol (0.5 mL HCl in 1000 mL ethanol) using a Heidolph Diax 100 homogenizer (Heidolph Instruments, Schwabach, Germany) at 25,000 rpm on ice for 1 min. The homogenate was centrifuged at 12,000 rpm for 30 min. The supernatant was collected and diluted 20-fold with 20 mM Tris-HCl (pH 7.8).
(§5) To construct a protein that specifically binds to the SE-33 peptide ([…]), a complementary sequence with a high affinity to the SE-33 was calculated using the Antimicrobial Peptide Database APD3 [94, 95]. The sequence was cloned into a plasmid and expressed in E. coli strain BL21(DE3). The protein was then isolated and purified using a Ni-NTA column. Purified protein was conjugated with Epoxy-activated Sepharose 6B, creating a sorbent (Epoxy-Protein Sepharose) with a binding capacity of 240 μg/mL for the SE-33 peptide.
(§6) A column containing 5 mL of Epoxy-Protein Sepharose was equilibrated with 20 mM TrisHCl (pH 7.8). The sample was applied to the column via a 2 mL loop, followed by washing with 25 mL of 20 mM TrisHCl (pH 7.8). The SE-33 peptide was eluted with 5 mL of 75 mM NaCl in 20 mM TrisHCl (pH 7.8) without fractionation. The eluate enriched with the SE-33 peptide was subjected to solid-phase extraction. […]

in vivo [3] = experiment: in vivo; parameters: species or system C57BL/6 mice; conditions: iv
Protocol: as §1, §2
as §3, with “Blood samples were collected from the subclavian artery at 4, 8, 12, 16, 20, 24, 36, and 48 h post-administration (n = 6 animals/time point) (Figure 1B). […] The 0” for “The 0”
as §4, §5
as §6, with “fractionation.” for “fractionation. The eluate enriched with the SE-33 peptide was subjected to solid-phase extraction.”

Sequence: SETRPVLNRLFDKIRQVRKEFGKIKEKSRKFM [SE-33]
- minimum inhibitory concentration (MIC) (S. aureus): 12.5 µg/mL
- increase of fT relative to the highest single dose [1]: 20.0%
- rise of fT [1]: 25.0%
- minimum bactericidal concentration (MBC) (E. coli): 20 µg/mL
- minimum inhibitory concentration (MIC) (fungi and yeast): 31.2 to 1024 µg/mL
- AUC(0-t) (in vivo [2]; male, C57BL/6, mouse, iv): 2010 ng·h/mL
- Tmax (in vivo [2]; male, C57BL/6, mouse, iv): 8 h
- Cmax (in vivo [2]; male, C57BL/6, mouse, iv, Cmax): 142 ng/mL
- MRT (in vivo [2]; male, C57BL/6, mouse, iv, MRT0–∞): 10.4 h
- half-life (in vivo [2]; male, C57BL/6, mouse, iv, T1/2 (elimination half-life)): 4.8 h
- persistence of the peptide in tissues (in vivo [2]; mouse): up to 48 h
- SE-33 concentration at 8 h (in vivo [2]; mouse, iv): 0.043 μg/mL
- SE-33 level in liver exceeding that in the lungs (in vivo [2]; mouse, iv): 4 fold
- SE-33 levels within 2 h post-intravenous administration (in vivo [2]; mouse, iv): no detectable SE-33 levels
- AUC (in vivo [3]; male, C57BL/6, mouse): 8210 ng·h/mL
- AUC(0-inf) (in vivo [3]; male, C57BL/6, mouse): 8050 ng·h/mL
- Cmax (in vivo [3]; male, C57BL/6, mouse): 233 ng/mL
- Tmax (in vivo [3]; male, C57BL/6, mouse): 8 h
- half-life (in vivo [3]; male, C57BL/6, mouse): 23.1 h
- MRT (in vivo [3]; male, C57BL/6, mouse, MRT4–24): 34.2 h
- MRT (in vivo [3]; male, C57BL/6, mouse, MRT4–∞): 31.4 h
- Tmax (in vivo [3]; mouse): 4 h
